Legend:
VMM39 cells = assay: Rereplication by propidium iodide staining and FACS; format: cell-based, human; details: VMM39, 1 μM pevonedistat
Experimental: (§1) The effects of pevonedistat, vemurafenib, and/or silencing of various cell cycle-associated proteins by siRNA on cell cycle distribution and rereplication were assessed by propidium iodide staining and flow cytometry of asynchronous melanoma cultures. Synchronization of cells was not employed to avoid bias and to be able to measure the impact of these perturbations on proliferating cancer cells. Briefly, asynchronous melanoma cell lines were treated with pevonedistat or vemurafenib, or transfected with si-CDT1, si-CDT2, si-SET8, si-p21, sigeminin, si-EMI1, or si-GL2 for a time ranging from 24 to 96 hours. Cells were washed with cold PBS, harvested, and fixed in 70% (v/v) ethanol. Cells were subsequently treated with 20 μg of DNase-free RNase and stained with propidium iodide according to instructions of the manufacturer. Samples were analyzed on a FACSCAN™ (Becton, Dickinson and Company, Franklin Lakes, N.J., United States of America) and G0-G1, S, and G2-M fractions were segmented, and apoptotic (sub-G1 DNA content) and rereplicating (>G2/M DNA content) fractions were determined using FLOWJO® (FLOWJO, LLC, Ashland, Oreg., United States of America) and ModFit (Verity Software House, Topsham, Me., United States of America) software.

SK-MEL-28 cells = assay: as above; format: cell-based, human; details: SK-MEL-28, 1 μM pevonedistat
Experimental: as §1

DM13 cells = assay: as above; format: cell-based, human
Experimental: as §1

VMM18 cells = assay: as above; format: cell-based, human; details: VMM18, 1 μM pevonedistat
Experimental: as §1

SLM2 melanoma cells = assay: as above; format: cell-based, human
Experimental: as §1

VMM1 cells = assay: as above; format: cell-based, human
Experimental: as §1

DM331 cells = assay: as above; format: cell-based, human; details: DM331, 1 μM pevonedistat
Experimental: as §1

DM93 melanoma xenografts = assay: Melanoma flank xenograft in nude mice; format: in vivo
Experimental: (§2) All animal experiments were performed after approval of animal protocols by the Animal Care and Use Committee (ACUC) of the University of Virginia. Animals were housed and handled in accordance with the guidelines of the ACUC of the University of Virginia. The effect of pevonedistat on melanoma growth was tested in flank xenograft models. Foxn1^nu (20-25 g body weight, 4-5 weeks old females) athymic nude immune-deficient mice (Harlan Laboratories, now Envigo, Indianapolis, Ind., United States of America) were used in this study. Pevonedistat was dissolved in sterile 10% DMSO containing PBS (stock 1 mM), filtered, and stored in −20° C. until use. DM93, VMM39, SLM2, DM331, or SK-MEL-24 (2×10^6) melanoma cells were implanted in both flanks of immune-deficient mice (n=12 mice per group) and tumor growth was monitored until they grow to an average volume of 150-200 mm^3, and mice were randomized into groups for treatment. Animals were administered 0.2 mL pevonedistat solution (30 or 60 mg/kg body weight as indicated) intraperitoneally on a schedule of two cycles of five-day treatment followed by five treatment-free days, for 3 weeks, or more as indicated. Control animals were treated with an equal volume of sterile vehicle (10% DMSO in PBS). Where indicated, mice received control rodent diet, or rodent diet with 417 mg/kg PLX4720 (Research Diets, Inc. New Brunswick, N.J., United States of America). Tumors were measured with an electronic caliper every other day for 3 weeks post-drug injection. Animal weight was recorded once a week to detect any weight loss due to the toxicity of drug treatment or tumor burden. At the end of the treatment, animals were euthanized and tumors harvested for further processing. The results shown are mean tumor volumes±s.e.m; *p<0.05, **p<0.01, ***p<0.001.

DM331 xenografts = assay: Melanoma flank xenograft in nude mice; format: in vivo; details: vs. vehicle; PLX4720 in rodent diet 417 mg/kg
Experimental: as §2

SLM2 xenografts = assay: Melanoma flank xenograft in nude mice; format: in vivo; details: 60 mg/kg; p=2.3×10^−3
Experimental: as §2

VMM39 xenografts = assay: Melanoma flank xenograft in nude mice; format: in vivo; details: 60 mg/kg; p=1.8×10^−5
Experimental: as §2

[1] = system: PIG3V or PIG1 immortalized but not malignant melanocytic cell lines; assay: Proliferation of immortalized non-malignant melanocytic cell lines; format: cell-based; details: Homo sapiens
[2] = system: non-malignant melanocytes PIG3V; assay: Rereplication by FACS in non-malignant melanocytes; format: cell-based, human; details: 48 hours following treatment
Experimental: as §1

[3] = system: DM331 and SK-MEL-24 cells from PLX4720-resistant tumors; assay: In vitro sensitivity of cells extracted ex vivo from PLX4720-resistant tumors; format: cell-based, human; details: DM331 and SK-MEL-24 cells extracted ex vivo
Experimental: Proliferation and viability of cultured cells was measured by CELLTITER96® Non-radioactive Cell Proliferation Assay (Promega Corporation; Madison, Wis., United States of America). Briefly, various wild type and mutant BRAF melanoma cells were seeded in 96 well plates and treated with pevonedistat, vemurafenib, or the combination pevonedistat and vemurafenib at various concentrations. Control cells were treated with DMSO. 96 hours following treatment, cells were stained with the dye solution according to the manufacturer's protocol. Absorbance was recorded at 570 nm and growth curves were established. […] Cells were counted every 24 hours using a COUNTESS™ Automated Cell Counter (INVITROGEN™, Carlsbad, Calif., United States of America), and harvested at the indicated times for PI staining and FACS analysis (cell cycle profile) or for immunoblotting.
The effects of pevonedistat, vemurafenib, and/or silencing of various cell cycle-associated proteins by siRNA on cell cycle distribution and rereplication were assessed by propidium iodide staining and flow cytometry of asynchronous melanoma cultures. […]

In the case of `NS(=O)(=O)OCC1CC(n2ccc3c(NC4CCc5ccccc54)ncnc32)CC1O` [pevonedistat, ((1S,2S,4R)-4-(4-((1S)-2,3-Dihydro-H-inden-1-ylamino)-7H-pyrrolo(2,3-d)pyrimidin-7-yl)-2-hydroxycyclopentyl)methyl sulphamate], the “Percent of Cells in S and G2/M at 24 hours” value (“Percent … at 24 hours” below) (VMM39 cells; 24 hours) is reported as 37.9%, the “Percent of Cells in S and G2/M at 72 Hours” value (shortened to “Percent … at 72 Hours”) (VMM39 cells; 72 hours) is reported as 33.8% and the “Percent … at 24 hours” value (SK-MEL-28 cells; 24 hours) is reported as 38.7%. For the same compound, the “Percent … at 72 Hours” value (SK-MEL-28 cells; 72 hours) was 55.9%, the “Percent … at 24 hours” value (DM13 cells; DM13, 1 μM pevonedistat, 24 hours) was 10.4% and the “Percent … at 72 Hours” value (DM13 cells; DM13, 1 μM pevonedistat, 72 hours) was 13.7%. The cells undergoing rereplication (DM13 cells; DM13, 72 hours post-treatment) was 13.7%, the “Percent … at 24 hours” value (VMM18 cells; 24 hours) was 7.83% and the “Percent … at 72 Hours” value (VMM18 cells; 72 hours) was 16.9%. For the same compound, the “Percent … at 24 hours” value (SLM2 melanoma cells; SLM2, 1 μM pevonedistat, 24 hours) was 46.8%, the “Percent … at 72 Hours” value (SLM2 melanoma cells; SLM2, 1 μM pevonedistat, 72 hours) was 50.2% and the cells with rereplication (SLM2 melanoma cells; SLM2, 72 hours post-treatment) was “more than 58%”. For the same compound, the “Percent … at 24 hours” value (VMM1 cells; VMM1, 1 μM pevonedistat, 24 hours) was 7.72%, the “Percent … at 72 Hours” value (VMM1 cells; VMM1, 1 μM pevonedistat, 72 hours) was 30.8% and the cells undergoing rereplication (VMM1 cells; VMM1, 72 hours post-treatment) was 25%. The “Percent … at 24 hours” value (DM331 cells; 24 hours) was 47.8%, the “Percent … at 72 Hours” value (DM331 cells; 72 hours) was 63.2% and the “growth of sg-control DM93 xenografts” value (DM93 melanoma xenografts; 30 mg/kg, p=0.009) was “significantly inhibited the growth”. For the same compound, the “growth of sg-p21-1 DM93 xenografts” value (DM93 melanoma xenografts; 30 mg/kg, p=0.092) was “failed to inhibit the growth”, the “growth of sg-SET8-1 DM93 xenografts” value (DM93 melanoma xenografts; 30 mg/kg, p=0.66) was “failed to inhibit the growth” and the tumor regression (DM93 melanoma xenografts; 30 or 60 mg/kg) was “did not result in tumor regression”. The “tumor regrowth after cessation of treatment” value (DM93 melanoma xenografts; either drug concentration, up to 10 days following cessation) was “not detectable”, the tolerability (DM93 melanoma xenografts; nude mice, 30 or 60 mg/kg, 5 days on/5 days off, two cycles) was “well tolerated” and the “growth of DM331 xenografts” value (DM331 xenografts) was “inhibited”. For the same compound, the “growth of SLM2 xenografts” value (SLM2 xenografts) was “significantly inhibited the growth”, the “growth of VMM39 xenografts” value (VMM39 xenografts) was “significantly inhibited the growth” and the IC50 [1] was greater than 500 nM. For the same compound, the rereplication [2] was “less than 3%” and the “sensitivity in vitro of cells from PLX4720-resistant tumors” value [3] was “sensitive to pevonedistat-induced rereplication and inhibition”.

— patent US20200397894A1, “COMPOSITIONS AND METHODS FOR TREATING CANCER” (University of Virginia Patent Foundation, priority 2016, published 2020)
